Experimental data reported in patent US6934639B1, “Methods for designing agents that interact with MMP-13” (Wyeth, priority 2000, dated 2005).

What was measured:
Assay type in all cases: biochemical
MMP-1 = target: T1, MMP-1 (Homo sapiens, UniProt P03956); assay: MMP-1 enzyme inhibition (IC50)
T1 sequence (P03956 100-469): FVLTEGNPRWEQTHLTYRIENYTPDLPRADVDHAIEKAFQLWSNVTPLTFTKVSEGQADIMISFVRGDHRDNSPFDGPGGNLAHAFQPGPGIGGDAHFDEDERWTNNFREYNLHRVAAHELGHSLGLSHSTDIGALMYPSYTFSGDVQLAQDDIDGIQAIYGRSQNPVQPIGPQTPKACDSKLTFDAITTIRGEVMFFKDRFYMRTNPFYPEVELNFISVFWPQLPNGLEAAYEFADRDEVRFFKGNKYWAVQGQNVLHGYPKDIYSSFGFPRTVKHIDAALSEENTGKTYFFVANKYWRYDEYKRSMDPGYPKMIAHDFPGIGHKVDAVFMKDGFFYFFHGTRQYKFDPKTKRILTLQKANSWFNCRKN

MMP-13 = MMP-13 (Homo sapiens, UniProt P45452); assay: MMP-13 enzyme inhibition (IC50)
MMP-9 = MMP-9 (Homo sapiens, UniProt P14780); assay: MMP-9 enzyme inhibition (IC50)
MMP-9, sequence (P14780 94-707, species assumed): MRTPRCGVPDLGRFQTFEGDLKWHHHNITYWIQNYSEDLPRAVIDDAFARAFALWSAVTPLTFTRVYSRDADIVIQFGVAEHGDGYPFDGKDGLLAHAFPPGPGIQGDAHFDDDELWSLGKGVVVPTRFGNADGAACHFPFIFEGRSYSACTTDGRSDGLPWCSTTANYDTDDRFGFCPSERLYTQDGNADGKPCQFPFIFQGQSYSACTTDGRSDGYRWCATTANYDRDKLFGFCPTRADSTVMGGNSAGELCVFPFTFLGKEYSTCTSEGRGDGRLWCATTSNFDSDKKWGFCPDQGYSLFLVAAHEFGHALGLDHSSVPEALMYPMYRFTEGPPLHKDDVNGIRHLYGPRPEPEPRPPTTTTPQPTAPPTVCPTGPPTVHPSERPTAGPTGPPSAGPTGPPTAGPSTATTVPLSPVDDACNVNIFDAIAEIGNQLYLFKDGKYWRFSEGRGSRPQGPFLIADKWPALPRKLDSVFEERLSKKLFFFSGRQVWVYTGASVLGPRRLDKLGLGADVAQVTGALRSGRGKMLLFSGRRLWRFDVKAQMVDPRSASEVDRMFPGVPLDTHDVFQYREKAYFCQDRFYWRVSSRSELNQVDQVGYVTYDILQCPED

TACE = TACE (Homo sapiens, UniProt P78536); assay: TACE enzyme inhibition (IC50)
TACE, sequence (P78536 215-824): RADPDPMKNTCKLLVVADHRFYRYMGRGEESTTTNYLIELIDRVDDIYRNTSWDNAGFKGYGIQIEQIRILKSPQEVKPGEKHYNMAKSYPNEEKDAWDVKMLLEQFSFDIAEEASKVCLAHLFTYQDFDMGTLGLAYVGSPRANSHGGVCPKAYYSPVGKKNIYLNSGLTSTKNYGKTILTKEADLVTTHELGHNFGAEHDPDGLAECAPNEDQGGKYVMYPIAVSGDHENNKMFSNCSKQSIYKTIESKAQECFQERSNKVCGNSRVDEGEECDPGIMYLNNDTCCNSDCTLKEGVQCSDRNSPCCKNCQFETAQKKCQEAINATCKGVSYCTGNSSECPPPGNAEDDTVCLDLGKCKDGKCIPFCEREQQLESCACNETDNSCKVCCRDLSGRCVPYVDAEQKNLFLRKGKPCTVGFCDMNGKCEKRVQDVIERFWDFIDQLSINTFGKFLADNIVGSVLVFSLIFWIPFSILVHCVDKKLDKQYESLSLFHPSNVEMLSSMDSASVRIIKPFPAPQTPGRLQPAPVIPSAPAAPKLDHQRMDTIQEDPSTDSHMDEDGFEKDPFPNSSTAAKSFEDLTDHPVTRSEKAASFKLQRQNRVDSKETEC

| IC50 (MMP-13) [nM] | IC50 (MMP-1) [nM] | IC50 (MMP-9) [nM] | Compound | IC50 (TACE) [nM] | further results |
| --- | --- | --- | --- | --- | --- |
|  |  |  | COc1ccc(S(=O)(=O)N(Cc2cccnc2)[C@@H](C(=O)NO)C(C)C)cc1 [CGS-27023A, reference compound] |  | potency as inhibitor of MMP-1 (MMP-1): low nanomolar |
|  |  |  | COc1ccc(S(=O)(=O)N(Cc2cccnc2)c2c(C)cccc2C(=O)NO)cc1 [Compound A, N-Hydroxy-2-[(4-methoxy-benzenesulfonyl)-pyridin-3-ylmethyl-amino]-3-methyl-benzamide] |  | potency as inhibitor of MMP-13 (MMP-13): low nanomolar |
| 75 | 750 | 46 | Cc1cc(C)c(N(Cc2ccccc2)S(=O)(=O)c2ccc(OCCc3ccccc3)cc2)c(C(=O)NO)c1 [Compound C, 2-[Benzyl-(4-phenethyloxy-benzenesulfonyl)-amino]-N-hydroxy-3,5-dimethyl-benzamide] |  |  |
|  |  |  | COc1ccc(S(=O)(=O)N(Cc2ccccc2)c2c(C)cc(C)cc2C(=O)NO)cc1 [Compound D, 2-[Benzyl-(4-methoxy-benzenesulfonyl)-amino]-N-hydroxy-3,5-dimethyl-benzamide] | 240 |  |
| 17 |  | 945 | Cc1cc(C)c(N(Cc2ccccc2)S(=O)(=O)c2ccc(OCCNC(=O)c3cc4ccccc4o3)cc2)c(C(=O)NO)c1 [Compound E, Benzofuran-2-carboxylic acid (2-{4-[benzyl-(2-hydroxycarbamoyl-4,6-dimethyl-phenyl)-sulfamoyl]-phenoxy}-ethyl)-amide] |  |  |
| 301 | 1020 | 71 | Cc1cc(C)c(N(Cc2ccccc2)S(=O)(=O)c2ccc(OCCCc3ccccc3)cc2)c(C(=O)NO)c1 [Compound F] | 664 | S-1: selectivity, ratio of MMP-1 IC50 with MMP-13 (MMP-1; MMP-1 IC50 / MMP-13 IC50): 3.4 x; S-9: selectivity, ratio of MMP-9 IC50 with MMP-13 (MMP-9; MMP-9 IC50 / MMP-13 IC50): 0.2 x; S-TACE: selectivity, ratio of TACE IC50 with MMP-13 (TACE; TACE IC50 / MMP-13 IC50): 2.2 x |
